Consider one molecule from paper PMC11855230, “Oligoethylene Phosphoramidate‐Based Kinase Inhibitor Prodrugs – Solubility, Enzyme Inhibition, and Hydrolysis” (Chemistry (Weinheim an Der Bergstrasse, Germany), 2025).

The test system of data set [1] is HeLa cells. The data set can be described thus: Cellular drug release in HeLa cells, LC–MS of cell lysate. The format is cell-based. Conditions: 20 μM, 48 h. The protocol:
HeLa cells are treated with Rib‐OEG4 for 48 h followed by cell lysis. The cell lysate is analyzed with liquid chromatography‐mass spectrometry (LC–MS). […] This confirms that release of the drug is possible in cells and that the low pH in some of the cell compartments, such as the lysosomes, yield release of the effective drug molecule.
Cellular Drug‐Release with LC–MS: Drug release studies are performed according to previous publication with 20 μM of Rib‐OEG4 .[21]

Data set [2] in a line: Dynamic light scattering (DLS) of drug‐conjugates in water. The format is physicochemical. The protocol: To study, whether self‐assembly into micelles might have an effect on the solubility limit of the prodrugs, we perform dynamic light scattering (DLS) of the drug‐conjugates in water. […] Micelles below 6 nm (Cer‐OEG8 , Cri‐OEG3 , Cri‐OEG8 , Pal‐OEG3 , Rib‐OEG2 , and Rib‐OEG3 ) are potentially affected by renal clearance.
Dynamic Light Scattering (DLS): Possible self‐assemblies are investigated with DLS Nano‐Zetasizer (Malvern Instruments) at 25 °C with a scattering angle of 173° at λ=633 nm.

The target of data set [3] is T1, cyclin‐dependent kinase 4 (CDK4) (Homo sapiens, UniProt P11802).
T1 construct: purchased biomol
T1 sequence (P11802 whole entry): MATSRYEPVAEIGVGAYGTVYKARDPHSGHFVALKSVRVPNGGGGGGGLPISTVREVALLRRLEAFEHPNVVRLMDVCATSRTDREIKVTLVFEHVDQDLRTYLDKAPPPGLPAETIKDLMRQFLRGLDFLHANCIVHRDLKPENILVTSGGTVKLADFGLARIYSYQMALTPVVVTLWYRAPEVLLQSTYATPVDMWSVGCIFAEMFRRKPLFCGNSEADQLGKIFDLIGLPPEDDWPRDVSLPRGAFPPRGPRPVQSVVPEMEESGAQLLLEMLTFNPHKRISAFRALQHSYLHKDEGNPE
T1 sequence (P30281 whole entry partner): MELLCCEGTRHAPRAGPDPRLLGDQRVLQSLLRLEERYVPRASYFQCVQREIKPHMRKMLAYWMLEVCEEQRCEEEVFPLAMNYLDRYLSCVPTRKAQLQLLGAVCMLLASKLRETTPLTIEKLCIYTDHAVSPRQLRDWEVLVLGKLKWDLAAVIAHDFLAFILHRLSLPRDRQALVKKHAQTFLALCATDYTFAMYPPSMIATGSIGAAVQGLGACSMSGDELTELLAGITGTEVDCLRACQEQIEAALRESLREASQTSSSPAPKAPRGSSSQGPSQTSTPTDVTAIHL
The data set can be described thus: CDK4 cell free enzyme (kinase) inhibition assay, luminescence. Type of data set: biochemical. As to conditions: 1 % DMSO, duplicates. The protocol: Apart from solubility and self‐assembly, we investigate the inhibitory potential against the respectively targeted receptors.
Enzyme Binding Assays (CDK4):[21] […] The instructions are followed with some specifications: DTT (10 μL of 1 M DTT to 1 mL buffer) is added to the buffer solution and the assay is performed with 1 % DMSO in the final reaction volume. Serial dilutions of inhibitor (5 μL) are mixed with 20 μL enzyme (10 ng/μL), 5 μL of 10x CDK4 substrate peptide and 1 μL ATP solution (500 μM) in a 96‐well plate. The blank contains no enzyme and no inhibitor. The positive control contains enzyme but no inhibitor. The receptor inhibitory rate is calculated from the luminescence as IC50. […] Luminescence is recorded on Promega GloMax Navigator Microplate Luminometer. Samples are prepared in duplicates.

The subject of data set [4] is HeLa cells. The data set can be described thus: Cell uptake in HeLa cells by confocal laser scanning microscopy (CLSM). The format is cell-based. As to conditions: 25 μM, 23 h, excitation 405 nm. The procedure: Altogether an OEG chain length of n=4 seems to be favorable for producing prodrugs with improved solubility from kinase inhibitors. […] Here we therefore concentrate on Rib‐OEG4 . […] The drug and its conjugate are exited at 405 nm, leading to weak fluorescence of the drugs.
Uptake is followed by Confocal for 23 h using Leica TCS SP8 Lightning confocal microscope with an OnkoLab incubator chamber with a constant temperature of 37 °C and a 5 % CO2 atmosphere at 95 % humidity (gas flow: 0.1 L/min). Drug and drug‐OEG conjugate is excited at 405 nm.

The nature of data set [5]: Solubility limit in water (kinetic solubility) by UV/Vis optical density at 600 nm. Conditions: kinetic from dmso stock, absorption at 600 nm, read-out: c sol (water), solubility limit in water. Type of data set: physicochemical. The text has this:
With all purified compounds in hand, we start to analyze the different properties of the conjugates and discuss the influence of the OEG‐chain lengths. We determine the solubility in water with UV/Vis spectroscopy by measuring the optical density at 600 nm. The absorption (A) is plotted against varying concentration (c) of the drug conjugates (see Figure S1). In the range, in which the drug and their conjugates are still soluble, A can be fitted linearly. When the solubility limit is reached, the drug crashes out of solution leading to scattering and reduced transmission manifesting a threshold, upon which the increase in absorption is fitted with a second line of higher slope. The intersection between the two linear fits gives the critical concentration for the kinetic solubility c sol. Detailed solubility plots can be found in the supporting information (see Figure S1). In our previous study with n=4, the solubility of all three kinase inhibitor prodrugs in water is improved over the native drug. However, the extent of improvement varies between the different kinase inhibitor prodrugs. For a better overview, we have included the performance of our previous study (see Figure 2).[21] […] We observe an improvement of solubility upon conjugation with all of our different OEG‐phosphates.
UV‐Vis Spectroscopy: Changes in solubility are measured with a Lambda 365 spectrometer by PerkinElmer supplied with UV WinLab software. Samples are prepared in water and placed in a 1 cm quartz cuvette.

[6] abbreviates: DLS in water, at the concentration given per compound (Figures S2–S5).

In brackets after ≈: the same amount, converted by molar mass.

Consider `COCCOCCOCCOCCOP(=O)(OCCOCCOCCOCCOC)N1CCN(c2ccc(Nc3ncc4cc(C(=O)N(C)C)n(C5CCCC5)c4n3)nc2)CC1` [Rib‐OEG4], for which the “release of native drug from prodrug in HeLa cells” value with HeLa cells [1] is listed as “most of the native drug has been released”. The same molecule gave a hydrodynamic diameter d in data set [2] (DLS in water at critical solution concentration c sol, 25 °C) of 92 nm. In data set [2] (setting [6]), the PDI was found to be 0.35 and the hydrodynamic diameter was 92 nm. The molecule further came in with an IC50 in data set [3] of 12 nM. For the same molecule, the “uptake in HeLa cells” value with HeLa cells [4] is reported as “taken up by the cells”. For the same molecule, the solubility in data set [5] was determined as 9.33 mM (≈ 8350 µg/mL).
